Test results as given in article PMC12681940, “Schisandrin B Targets PXR to Enhance Bile Acid Metabolism and Alleviate ANIT-Induced Cholestatic Liver Injury via Dual Pathways” (International Journal of Biological Sciences, 2026).

Molecular target: T1, pregnane X receptor (PXR) (Homo sapiens, UniProt O75469)
T1 construct: gene NR1I2
T1 sequence (O75469 106-434): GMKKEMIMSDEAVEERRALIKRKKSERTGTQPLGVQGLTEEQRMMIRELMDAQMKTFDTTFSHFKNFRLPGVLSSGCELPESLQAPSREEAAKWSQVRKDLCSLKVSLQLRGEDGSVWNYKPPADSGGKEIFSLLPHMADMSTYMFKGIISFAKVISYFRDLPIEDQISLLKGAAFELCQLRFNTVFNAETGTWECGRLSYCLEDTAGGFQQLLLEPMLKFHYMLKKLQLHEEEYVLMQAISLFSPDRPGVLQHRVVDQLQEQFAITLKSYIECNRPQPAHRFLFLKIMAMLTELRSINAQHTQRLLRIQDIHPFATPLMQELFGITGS
Test: biochemical

- Kd: 6.6 µM
Structure (SMILES): COc1cc2c(c(OC)c1OC)-c1c(cc3c(c1OC)OCO3)CC(C)C(C)C2 (stereo not shown) [Sin B, Schisandrin B]
